In US8106055B2, “Substituted amide compounds” (Gruenenthal GmbH, priority 2007, dated 2012):

Columns and labels:
[1] = molecular target: T1, human bradykinin 1 receptor (B1R) (Homo sapiens, UniProt P46663); assay: Functional investigation on the human bradykinin 1 receptor (B1R), Ca2+ FLIPR assay in CHO K1 hB1R cells; assay type: cell-based; conditions: CHO-K1, B1R antagonism human; test substance 10 μM; Ca2+ FLIPR, CHO K1 hB1R cells; read-out: B1R Ant. h [10 μM] % Inhibition
T1 construct: expressed in transfected cells; host or cells: CHO K1 cells
T1 sequence (P46663 1-353): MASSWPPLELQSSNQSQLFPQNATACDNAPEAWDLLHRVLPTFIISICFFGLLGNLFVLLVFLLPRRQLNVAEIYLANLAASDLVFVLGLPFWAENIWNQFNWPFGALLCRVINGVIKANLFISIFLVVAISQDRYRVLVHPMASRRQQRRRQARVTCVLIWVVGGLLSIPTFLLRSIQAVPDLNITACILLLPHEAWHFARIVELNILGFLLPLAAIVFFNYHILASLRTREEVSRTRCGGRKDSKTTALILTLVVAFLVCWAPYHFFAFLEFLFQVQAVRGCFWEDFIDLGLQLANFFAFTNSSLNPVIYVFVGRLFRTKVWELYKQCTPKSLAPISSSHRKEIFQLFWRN
Method in brief: (§1)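 Stably transfected CHO K1 cells loaded with Fluo-4; FLIPR Ca2+ fluorescence peak (ex 488/em 540 nm). Compound added first (agonism vs Lys-Des-Arg9-bradykinin ≥50 nM human, Des-Arg9-bradykinin 10 μM rat), then after 10-20 min agonist at EC80; antagonism as % inhibition, IC50 from concentration series, n=2-3, N≥2.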

[2] = molecular target: T2, human μ opiate receptor (Homo sapiens, UniProt P35372); assay: Affinity for the human μ opiate receptor ([3H]-naloxone displacement, CHO-K1 receptor membrane preparation, SPA); assay type: binding; conditions: 1.5 h, Table 3, to be read in the same way as Table 1; test concentration 1 μM; read-out: μ
T2 construct: purchased PerkinElmer Life Sciences, Zaventem, Belgium RB-HOM; host or cells: CHO-K1 cells (membrane preparation)
Method in brief: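 CHO-K1 membranes expressing human μ receptor incubated 90 min at room temperature with 1 nmol/l [3H]-naloxone and WGA-SPA beads in 50 mmol/l Tris-HCl, 0.06% BSA; 100 μmol/l naloxone defines non-specific binding. Values are % inhibition of specific binding at 1 μM; IC50 converted to Ki by Cheng-Prusoff.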

[3] = molecular target: T3, bradykinin 1 receptor (B1R) of the rat (Rattus norvegicus, UniProt P97583); assay: Functional investigation on the rat bradykinin 1 receptor (B1R), Ca2+ FLIPR assay in CHO K1 rB1R cells; assay type: cell-based; conditions: CHO-K1, B1R antagonism rat; test substance 10 μM; Ca2+ FLIPR, CHO K1 rB1R cells; read-out: B1R Ant. r [10 μM] % Inhibition
T3 construct: expressed in transfected cells; host or cells: CHO K1 cells
T3 sequence (P97583 1-337): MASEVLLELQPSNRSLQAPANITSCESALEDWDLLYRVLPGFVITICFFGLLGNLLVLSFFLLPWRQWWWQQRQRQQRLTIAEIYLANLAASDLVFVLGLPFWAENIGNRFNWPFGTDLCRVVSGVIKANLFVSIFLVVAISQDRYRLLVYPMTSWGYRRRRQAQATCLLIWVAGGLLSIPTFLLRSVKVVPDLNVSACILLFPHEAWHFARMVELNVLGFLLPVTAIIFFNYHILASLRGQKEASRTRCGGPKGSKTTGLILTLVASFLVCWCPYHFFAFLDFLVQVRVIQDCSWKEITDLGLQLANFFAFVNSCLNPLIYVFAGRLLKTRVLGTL
Method in brief: as §1

T2 sequence (P35372 whole entry): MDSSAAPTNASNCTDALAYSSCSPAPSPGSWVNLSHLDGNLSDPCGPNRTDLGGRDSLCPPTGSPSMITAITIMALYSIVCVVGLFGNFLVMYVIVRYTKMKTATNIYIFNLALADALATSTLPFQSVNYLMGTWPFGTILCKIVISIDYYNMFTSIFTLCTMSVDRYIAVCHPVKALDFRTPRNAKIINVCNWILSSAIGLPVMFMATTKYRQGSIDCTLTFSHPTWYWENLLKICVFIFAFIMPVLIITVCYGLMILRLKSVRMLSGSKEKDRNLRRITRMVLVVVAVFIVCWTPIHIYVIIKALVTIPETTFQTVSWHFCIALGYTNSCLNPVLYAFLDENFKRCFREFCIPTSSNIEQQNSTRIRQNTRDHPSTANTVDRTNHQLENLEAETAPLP

SMILES | inhibition at 10 µM [1] [%] | inhibition at 1 µM [2] [%] | inhibition at 10 µM [3] [%]
COc1cc(C)c(S(=O)(=O)N2CCCC2COCC(=O)NCC2CCC(C(c3ccccc3)N3CCOCC3)CC2)c(C)c1 (stereo not drawn) [Example 709, 2-((1-(4-methoxy-2,6-dimethylphenylsulfonyl)pyrrolidin-2-yl)methoxy)-N-((4-(morpholino(phenyl)methyl)cyclohexyl)methyl)acetamide] | 82 | 8 | 104
O=C(COCC1CCCN1S(=O)(=O)c1c(Cl)cc(Cl)cc1Cl)NCC1CCC(C(c2ccccc2)N2CCOCC2)CC1 (stereo not drawn) [Example 710, N-((4-(morpholino(phenyl)methyl)cyclohexyl)methyl)-2-((1-(2,4,6-trichlorophenylsulfonyl)pyrrolidin-2-yl)methoxy)acetamide] | 42 | 24 | 92
COc1cc(C)c(S(=O)(=O)N2CCCCC2COCC(=O)NCC2CCC(C(c3ccccc3)N3CCOCC3)CC2)c(C)c1 (stereo not drawn) [Example 711, 2-((1-(4-methoxy-2,6-dimethylphenylsulfonyl)piperidin-2-yl)methoxy)-N-((4-(morpholino(phenyl)methyl)cyclohexyl)methyl)acetamide] | 86 | 33 | 103
O=C(COCC1CCCCN1S(=O)(=O)c1c(Cl)cc(Cl)cc1Cl)NCC1CCC(C(c2ccccc2)N2CCOCC2)CC1 (stereo not drawn) [Example 712, N-((4-(morpholino(phenyl)methyl)cyclohexyl)methyl)-2-((1-(2,4,6-trichlorophenylsulfonyl)piperidin-2-yl)methoxy)acetamide] | 46 | 40 | 100
CN1CCN(C(c2ccccc2)C2CCC(NC(=O)COCCN(C)S(=O)(=O)c3c(Cl)cc(Cl)cc3Cl)CC2)CC1 (stereo not drawn) [Example 714, N-(4-((4-methylpiperazin-1-yl)(phenyl)methyl)cyclohexyl)-2-(2-(2,4,6-trichloro-N-methylphenylsulfonamido)ethoxy)acetamide] | 104 | 52 | 64
CN(CCOCC(=O)NCC1CCC(C(CCc2ccccc2)N2CCOCC2)CC1)S(=O)(=O)c1c(Cl)cc(Cl)cc1Cl (stereo not drawn) [Example 715, N-((4-(1-morpholino-3-phenylpropyl)cyclohexyl)methyl)-2-(2-(2,4,6-trichloro-N-methylphenylsulfonamido)ethoxy)acetamide] | 55 | 10 | 24
CN(CCOCC(=O)NCC1CCC(C(CCc2ccccc2)N2CCOCC2)CC1)S(=O)(=O)c1ccc(Cl)cc1Cl (stereo not drawn) [Example 716, 2-(2-(2,4-dichloro-N-methylphenylsulfonamido)ethoxy)-N-((4-(1-morpholino-3-phenylpropyl)cyclohexyl)methyl)acetamide] | 59 | 13 | 31
CN(CCOCC(=O)NCC1CCC(C(CCc2ccccc2)N2CCCC2)CC1)S(=O)(=O)c1ccc(Cl)cc1Cl (stereo not drawn) [Example 717, 2-(2-(2,4-dichloro-N-methylphenylsulfonamido)ethoxy)-N-((4-(3-phenyl-1-(pyrrolidin-1-yl)propyl)cyclohexyl)methyl)acetamide] | 100 | 22 | 88
COc1cc(C)c(S(=O)(=O)N(C)CCOCC(=O)NCC2CCC(C(c3ccccc3)N3CCOCC3)CC2)c(C)c1 (stereo not drawn) [Example 718, 2-(2-(4-methoxy-N,2,6-trimethylphenylsulfonamido)ethoxy)-N-((4-(morpholino(phenyl)methyl)cyclohexyl)methyl)acetamide] | 105 | 4 | 96
COc1cc(C)c(S(=O)(=O)N(C)CCOCC(=O)NCC2CCC(C(CCc3ccccc3)N3CCOCC3)CC2)c(C)c1 (stereo not drawn) [Example 719, 2-(2-(4-methoxy-N,2,6-trimethylphenylsulfonamido)ethoxy)-N-((4-(1-morpholino-3-phenylpropyl)cyclohexyl)methyl)acetamide] | 103 | 6 | 101
COc1cc(C)c(S(=O)(=O)N(C)CCOCC(=O)NCC2CCC(C(CCc3ccccc3)N3CCCC3)CC2)c(C)c1 (stereo not drawn) [Example 720, 2-(2-(4-methoxy-N,2,6-trimethylphenylsulfonamido)ethoxy)-N-((4-(3-phenyl-1-(pyrrolidin-1-yl)propyl)cyclohexyl)methyl)acetamide] | 101 | 26 | 101
CN(CCOCC(=O)NCC1CCC(C(CCc2ccccc2)N2CCOCC2)CC1)S(=O)(=O)c1c(Cl)cccc1Cl (stereo not drawn) [Example 721, 2-(2-(2,6-dichloro-N-methylphenylsulfonamido)ethoxy)-N-((4-(1-morpholino-3-phenylpropyl)cyclohexyl)methyl)acetamide] | 94 | 7 | 57
CN(CCOCC(=O)NCC1CCC(C(CCc2ccccc2)N2CCCC2)CC1)S(=O)(=O)c1c(Cl)cccc1Cl (stereo not drawn) [Example 722, 2-(2-(2,6-dichloro-N-methylphenylsulfonamido)ethoxy)-N-((4-(3-phenyl-1-(pyrrolidin-1-yl)propyl)cyclohexyl)methyl)acetamide] | 101 | 32 | 89
O=C(COC1CCN(S(=O)(=O)c2c(Cl)cc(Cl)cc2Cl)C1)NCC1CCC(C(CCc2ccccc2)N2CCCC2)CC1 (stereo not drawn) [Example 723, N-((4-(3-phenyl-1-(pyrrolidin-1-yl)propyl)cyclohexyl)methyl)-2-(1-(2,4,6-trichlorophenylsulfonyl)pyrrolidin-3-yloxy)acetamide] | 90 | 35 | 40
COc1cc(C)c(S(=O)(=O)N2CCC(OCC(=O)NCC3CCC(C(c4ccccc4)N4CCOCC4)CC3)C2)c(C)c1 (stereo not drawn) [Example 724, 2-(1-(4-methoxy-2,6-dimethylphenylsulfonyl)pyrrolidin-3-yloxy)-N-((4-(morpholino(phenyl)methyl)cyclohexyl)methyl)acetamide] | 55 | 8 | 50
COc1cc(C)c(S(=O)(=O)N2CCC(OCC(=O)NCC3CCC(C(CCc4ccccc4)N4CCOCC4)CC3)C2)c(C)c1 (stereo not drawn) [Example 725, 2-(1-(4-methoxy-2,6-dimethylphenylsulfonyl)pyrrolidin-3-yloxy)-N-((4-(1-morpholino-3-phenylpropyl)cyclohexyl)methyl)acetamide] | 96 | 10 | 63
COc1cc(C)c(S(=O)(=O)N2CCC(OCC(=O)NCC3CCC(C(CCc4ccccc4)N4CCCC4)CC3)C2)c(C)c1 (stereo not drawn) [Example 726, 2-(1-(4-methoxy-2,6-dimethylphenylsulfonyl)pyrrolidin-3-yloxy)-N-((4-(3-phenyl-1-(pyrrolidin-1-yl)propyl)cyclohexyl)methyl)acetamide] | 103 | 23 | 94
CN(CCOCC(=O)NCC1CCC(C(c2ccccc2)N2CCOCC2)CC1)S(=O)(=O)c1c(Cl)cc(C(F)(F)F)cc1Cl (stereo not drawn) [Example 727, 2-(2-(2,6-dichloro-N-methyl-4-(trifluoromethyl)phenylsulfonamido)ethoxy)-N-((4-(morpholino(phenyl)methyl)cyclohexyl)methyl)acetamide] | 16 | 10 | 29
CN(CCOCC(=O)NCC1CCC(C(CCc2ccccc2)N2CCOCC2)CC1)S(=O)(=O)c1c(Cl)cc(C(F)(F)F)cc1Cl (stereo not drawn) [Example 728, 2-(2-(2,6-dichloro-N-methyl-4-(trifluoromethyl)phenylsulfonamido)ethoxy)-N-((4-(1-morpholino-3-phenylpropyl)cyclohexyl)methyl)acetamide] | -9 | 12 | 9
